Broadly, the EC50 is the concentration giving half of the maximal effect. A word on the NOAEL: it is the highest dose or exposure tested at which no adverse effect was seen.

Results on four compounds are retold here after patent US20250268876A1, “TREATMENT OF HIDRADENITIS SUPPURATIVA WITH ORISMILAST” (UNION THERAPEUTICS A/S, priority 2021, published 2025).

Values joined by “and” are separate entries in the source; they are usually repeats but may differ in a detail not shown here. Equal entries are not always repeated. Where two headings read alike, the source gives them in different places. Marks after values point to notes of the source that are not given here.

Data set [1] has as its system TNF-α secretion from human whole blood. Kind of data set: Whole blood TNF-α secretion assay (LPS or SEB). It is filed as cell-based.
Data set [2] has as its system Hidradenitis suppurativa (HS). Particulars: two phase II studies, moderate HS; none of the patients in the placebo group; cited from earlier work.
Data set [3] in a line: Emesis study in ferrets. Particulars: ferret, in vivo, po.
The test system of data set [4] is TNF-α. Briefly: LPS-induced TNF-α in ferrets after single oral administration. The note with it: oral 1 and 3 mg/kg; 1 hour after LPS (3 mg/kg ip).
In data set [5] the test system is conscious, unrestrained ferret. Particulars: in vivo, po, 1 mg/kg.
The mark [6] stands for this setting: Homo sapiens, 24 h, SEB 1 μg/mL, 24 hours, donor 1, read-out: Emax.
The mark [7] stands for this setting: Homo sapiens, 48 h, SEB 1 μg/mL, 48 hours, donor 1, read-out: Emax.
The mark [8] stands for this setting: Homo sapiens, 48 h, SEB 1 μg/mL, 48 hours, donor 2, read-out: Emax.

With `C[C@@H]1CCN(C(=O)CC#N)C[C@@H]1N(C)c1ncnc2[nH]ccc12` [Tofacitinib], the Emax in data set [1] (setting [6]) is 98%; in data set [1] (setting [7]) it was 95%; in data set [1] (setting [8]), 102%; in data set [1] (SEB 1 μg/mL, 24 hours, donor 2) it was 100*. The “Effect on TNF-α secretion (in words)” value in data set [1] (LPS 1 μg/mL, 24 hours) is listed as “Stimulation”; in data set [1] (LPS 1 μg/mL, 48 hours), “Stimulation”.
With `CCOc1cc([C@@H](CS(C)(=O)=O)N2C(=O)c3cccc(NC(C)=O)c3C2=O)ccc1OC` [Apremilast], the Emax in data set [1] (Homo sapiens, 24 h, LPS 1 μg/mL, 24 hours, donor 1, Emax defined as TNF-α level in un-stimulated wells, read-out: Emax) turned out to be 74%; in data set [1] (Homo sapiens, 24 h, LPS 1 μg/mL, 24 hours, donor 2, read-out: Emax), 79%; in data set [1] (setting [6]), 98%; in data set [1] (Homo sapiens, 24 h, SEB 1 μg/mL, 24 hours, donor 2, read-out: Emax) it was 65%; in data set [1] (Homo sapiens, 48 h, LPS 1 μg/mL, 48 hours, donor 1, read-out: Emax), 77%; in data set [1] (Homo sapiens, 48 h, LPS 1 μg/mL, 48 hours, donor 2, read-out: Emax), 78%. Further, the Emax was determined as 97% in data set [1] (setting [7]) and 80% in data set [1] (setting [8]). The EC50 stood at 210 nM in data set [1] (Homo sapiens, 24 h, LPS 1 μg/mL, 24 hours, donor 1, read-out: EC50); 283 nM in data set [1] (Homo sapiens, 24 h, LPS 1 μg/mL, 24 hours, donor 2, read-out: EC50); 620 nM in data set [1] (Homo sapiens, 24 h, SEB 1 μg/mL, 24 hours, donor 2, read-out: EC50); 277 nM in data set [1] (Homo sapiens, 48 h, LPS 1 μg/mL, 48 hours, donor 1, read-out: EC50); 364 nM in data set [1] (Homo sapiens, 48 h, LPS 1 μg/mL, 48 hours, donor 2, read-out: EC50); 155 nM in data set [1] (Homo sapiens, 48 h, SEB 1 μg/mL, 48 hours, donor 1, read-out: EC50). Further, the EC50 in data set [1] (Homo sapiens, 48 h, SEB 1 μg/mL, 48 hours, donor 2, read-out: EC50) is 573 nM; in data set [1] (Homo sapiens, mean of 8 determinations (LPS and SEB, 24 and 48 hours, 2 donors), read-out: Geometric mean of EC50 values across different assay parameters), 287 nM and 0.132 µg/mL. For the same compound, the “treated patients with a positive HS clinical response (HiSCR)” value in data set [2] is given as “more than 50%”.
Take `O=C(Nc1c(Cl)c[n+]([O-])cc1Cl)c1ccc(OC(F)F)c(OCC2CC2)c1` [Roflumilast N-oxide]: the Emax in data set [1] (LPS 1 μg/mL, 24 hours, donor 1, Emax defined as TNF-α level in un-stimulated wells) is 72; in data set [1] (LPS 1 μg/mL, 24 hours, donor 2), 79; in data set [1] (LPS 1 μg/mL, 48 hours, donor 1) it was 75; in data set [1] (LPS 1 μg/mL, 48 hours, donor 2), 78; in data set [1] (SEB 1 μg/mL, 24 hours, donor 1) it was 97; in data set [1] (SEB 1 μg/mL, 24 hours, donor 2) it was 66. Further, the Emax in data set [1] (SEB 1 μg/mL, 48 hours, donor 1) stood at 97; in data set [1] (SEB 1 μg/mL, 48 hours, donor 2), 80. For the same compound, the concentration for a half-maximal effect (EC50) in data set [1] (LPS 1 μg/mL, 24 hours, donor 1, read-out: EC50) stood at 23.4 nM; in data set [1] (LPS 1 μg/mL, 24 hours, donor 2, read-out: EC50) it was 24 nM; in data set [1] (LPS 1 μg/mL, 48 hours, donor 1, read-out: EC50), 38.6 nM; in data set [1] (LPS 1 μg/mL, 48 hours, donor 2, read-out: EC50), 35 nM; in data set [1] (SEB 1 μg/mL, 24 hours, donor 1, read-out: EC50) it was 8.69 nM; in data set [1] (SEB 1 μg/mL, 24 hours, donor 2, read-out: EC50), 35.6 nM. Further, the EC50 in data set [1] (SEB 1 μg/mL, 48 hours, donor 1, read-out: EC50) worked out at 4.77 nM; in data set [1] (SEB 1 μg/mL, 48 hours, donor 2, read-out: EC50), 33.4 nM; in data set [1] (mean of 8 determinations (LPS and SEB, 24 and 48 hours, 2 donors), read-out: Geometric mean of EC50 values across different assay parameters), 21 nM. The “Geometric mean of EC50 values across different assay parameters” value in data set [1] (mean of 8 determinations (LPS and SEB, 24 and 48 hours, 2 donors)) is recorded as 8.80 ng/mL.
In data set [3], `O=C(Nc1c(Cl)cncc1Cl)c1ccc(OC(F)F)c(OCC2CC2)c1` [Roflumilast] returned an NOAEL at 3 h of 1 mg/kg. In addition, in data set [4], the “increase of TNF-α levels observed at 1 hour” value was “attenuated in a dose-related manner”. In addition, the Emetogenic properties result in data set [5] is recorded as “absent”.
